{"source": "paper PMC4151019", "about": "(Clinical Pharmacology and Therapeutics, 2014)", "key": {"CYP2D6": {"tested_on": "CYP2D6", "details": "read-out: inhibition constant (Ki); cited from earlier work"}, "CYP2B6": {"tested_on": "CYP2B6", "assay": "CYP2B6 phenotyping with bupropion", "details": "rifampicin-mediated induction; matrix not stated"}, "[1]": {"format": "in vivo, human"}, "[2]": {"assay": "Comparison of probe Cmax and AUC in DBS and plasma", "format": "in vivo, human", "details": "for blood plasma ratio: human, capillary whole blood (DBS) versus venous plasma, oral"}, "[3]": {"details": "after a single 75-mg bupropion dose; cited from earlier work"}, "[4]": {"assay": "Side effects reported by volunteers", "details": "10 healthy volunteers"}, "CYP1A2": {"target": "T1, CYP1A2 (Homo sapiens, UniProt P05177)", "T1 sequence (P05177 1-516)": "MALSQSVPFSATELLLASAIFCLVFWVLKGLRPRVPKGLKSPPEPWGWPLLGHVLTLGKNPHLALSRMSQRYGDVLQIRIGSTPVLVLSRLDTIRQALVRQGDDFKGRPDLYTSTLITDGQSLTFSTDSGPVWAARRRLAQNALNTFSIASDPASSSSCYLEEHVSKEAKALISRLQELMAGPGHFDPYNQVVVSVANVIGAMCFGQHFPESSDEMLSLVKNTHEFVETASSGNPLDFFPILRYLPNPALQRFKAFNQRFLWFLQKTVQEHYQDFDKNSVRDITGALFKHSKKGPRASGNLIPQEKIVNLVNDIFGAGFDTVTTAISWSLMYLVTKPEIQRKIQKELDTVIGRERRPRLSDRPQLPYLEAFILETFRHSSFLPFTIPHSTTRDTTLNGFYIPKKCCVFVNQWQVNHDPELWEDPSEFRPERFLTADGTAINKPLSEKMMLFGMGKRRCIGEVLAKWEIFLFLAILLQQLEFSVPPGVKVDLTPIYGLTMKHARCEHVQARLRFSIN", "assay": "CYP1A2 phenotyping with caffeine", "details": "par/caf AUClast ratio in DBS"}, "CYP2C19": {"target": "CYP2C19 (Homo sapiens, UniProt P33261)", "sequence (P33261 whole entry)": "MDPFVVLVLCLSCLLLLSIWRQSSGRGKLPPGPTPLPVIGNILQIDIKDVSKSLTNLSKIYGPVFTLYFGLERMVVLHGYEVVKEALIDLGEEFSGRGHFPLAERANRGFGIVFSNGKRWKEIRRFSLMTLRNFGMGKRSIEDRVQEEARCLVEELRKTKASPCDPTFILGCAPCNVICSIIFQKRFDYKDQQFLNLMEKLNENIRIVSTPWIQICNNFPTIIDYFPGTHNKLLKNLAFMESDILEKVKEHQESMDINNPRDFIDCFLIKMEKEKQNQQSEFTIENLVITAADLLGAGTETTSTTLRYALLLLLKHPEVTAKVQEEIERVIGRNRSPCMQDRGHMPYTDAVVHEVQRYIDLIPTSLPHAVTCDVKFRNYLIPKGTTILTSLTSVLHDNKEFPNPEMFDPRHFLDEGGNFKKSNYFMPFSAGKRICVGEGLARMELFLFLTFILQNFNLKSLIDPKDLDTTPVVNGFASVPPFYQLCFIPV", "details": "previous studies; cited from earlier work"}, "CYP3A": {"tested_on": "CYP3A", "assay": "CYP3A phenotyping with midazolam", "details": "voriconazole 400 mg 2 h before cocktail"}, "[5]": {"details": "after a 75-mg single dose, from free plasma fraction and liver/plasma ratio"}, "[6]": {"details": "after a single 25-mg dose, approximately 3 times less than 75 mg"}}, "note": "Where “and” joins values, the source holds several entries; their conditions need not be identical. Identical values can stand only once. Like-named read-outs stand apart in the source and are kept apart here.", "data": [{"compound": "CC(NC(C)(C)C)C(=O)c1cccc(Cl)c1", "note": "(centres unmarked) [Bupropion, bupropion]", "values": [{"measurement": "Ki", "setting": "CYP2D6", "value": 21, "unit": "µM"}, {"measurement": "decrease in bupropion AUC", "setting": "CYP2B6", "value": "approximately threefold"}, {"measurement": "maximal estimated liver concentrations", "setting": "[1]; [5]", "value": 0.73, "unit": "µmol/L"}, {"measurement": "maximal estimated liver concentrations", "setting": "[1]; [6]", "value": 0.24, "unit": "µmol/L"}]}, {"compound": "COc1ccc2c(c1)[C@]13CCCC[C@@H]1[C@H](C2)N(C)CC3", "note": "[Dextromethorphan, dextromethorphan]", "values": [{"measurement": "Cmax and AUC in DBS vs plasma (mean ratio, blood to plasma ratio)", "setting": "[2]; capillary DBS vs venous plasma", "value": "higher in DBS"}]}, {"compound": "CC(C(=O)O)c1ccc(-c2ccccc2)c(F)c1", "note": "(centres unmarked) [Flurbiprofen, flurbiprofen]", "values": [{"measurement": "blood plasma ratio", "setting": "[2]", "value": "~0.6"}]}, {"compound": "Cc1ncc2n1-c1ccc(Cl)cc1C(c1ccccc1F)=NC2", "note": "[Midazolam, midazolam]", "values": [{"measurement": "blood plasma ratio", "setting": "[2]", "value": "~0.6"}]}, {"compound": "CC(NC(C)(C)CO)C(=O)c1cccc(Cl)c1", "note": "(centres unmarked) [OH-bup, 4′-hydroxybupropion]", "values": [{"measurement": "Ki", "setting": "CYP2D6", "value": 13.3, "unit": "µM"}, {"measurement": "maximal plasma concentrations", "setting": "[3]", "value": 0.52, "unit": "µmol/L"}, {"measurement": "maximal estimated liver concentrations", "setting": "[1]; [5]", "value": 1.13, "unit": "µmol/L"}, {"measurement": "maximal estimated liver concentrations", "setting": "[1]; [6]", "value": 0.38, "unit": "µmol/L"}]}, {"compound": "COc1ccc2[nH]c([S+]([O-])Cc3ncc(C)c(OC)c3C)nc2c1", "note": "(centres unmarked) [Omeprazole, omeprazole]", "values": [{"measurement": "blood plasma ratio", "setting": "[2]", "value": "~0.6"}]}, {"compound": "CC(NC(C)(C)C)C(O)c1cccc(Cl)c1", "note": "(centres unmarked) [erythrohydrobupropion]", "values": [{"measurement": "Ki", "setting": "CYP2D6", "value": 1.7, "unit": "µM"}, {"measurement": "maximal plasma concentrations", "setting": "[3]", "value": 0.03, "unit": "µmol/L"}, {"measurement": "maximal estimated liver concentrations", "setting": "[1]; [5]", "value": 0.16, "unit": "µmol/L"}, {"measurement": "maximal estimated liver concentrations", "setting": "[1]; [6]", "value": 0.05, "unit": "µmol/L"}]}, {"compound": "COCCCC/C(=N\\OCCN)c1ccc(C(F)(F)F)cc1", "note": "[fluvoxamine]", "values": [{"measurement": "reported side effects", "setting": "[4]", "value": "four volunteers reported short-lasting troubled vision"}, {"measurement": "effect on CYP1A2 activity", "setting": "CYP1A2", "value": "potently inhibited"}]}, {"compound": "CO[C@H]1/C=C/O[C@@]2(C)Oc3c(C)c(O)c4c(O)c(c(/C=N/N5CCN(C)CC5)c(O)c4c3C2=O)NC(=O)/C(C)=C\\C=C\\[C@H](C)[C@H](O)[C@@H](C)[C@@H](O)[C@@H](C)[C@H](OC(C)=O)[C@@H]1C", "note": "[rifampicin]", "values": [{"measurement": "effect on CYP1A2 activity", "setting": "CYP1A2", "value": "slightly, but not significantly, increased"}, {"measurement": "extent of CYP2C19 induction", "setting": "CYP2C19", "value": "4.2 fold and 2.6 fold"}]}, {"compound": "C[C@H](NC(C)(C)C)[C@@H](O)c1cccc(Cl)c1", "note": "[threohydrobupropion]", "values": [{"measurement": "Ki", "setting": "CYP2D6", "value": 5.4, "unit": "µM"}, {"measurement": "maximal plasma concentrations", "setting": "[3]", "value": 0.24, "unit": "µmol/L"}, {"measurement": "maximal estimated liver concentrations", "setting": "[1]; [5]", "value": 1.31, "unit": "µmol/L"}, {"measurement": "maximal estimated liver concentrations", "setting": "[1]; [6]", "value": 0.44, "unit": "µmol/L"}]}, {"compound": "C[C@@H](c1ncncc1F)[C@](O)(Cn1cncn1)c1ccc(F)cc1F", "note": "[voriconazole]", "values": [{"measurement": "reported side effects", "setting": "[4]", "value": "four volunteers reported short-lasting troubled vision"}, {"measurement": "effect on CYP3A activity", "setting": "CYP3A", "value": "significantly inhibited"}]}]}
